# Data published in PMC7038139, “Novel Peptide CM 7 Targeted c-Met with Antitumor Activity” (Molecules, 2020).
# Entries after “also recorded” stand apart in the source; their conditions may differ.
# Assays:
# [1] = test system: c-Met and its downstream signaling molecules in MKN-45 cells; assay: Western blot of c-Met signaling, MKN-45; format: cell-based, Human; settings: 24 h
# Description: (§1) Western blot analysis was performed using an extraction buffer as described. MKN-45, MKN-28 and U87 cells were cultured in serum-free medium overnight, then treated with the indicated dose of peptide CM 7 for 24 h at 37 °C after stimulated without or with HGF for 15 min. Next, total cell lysates were separated by 12% SDS-polyacrylamide gel (SDS-PAGE) and transferred to polyvinylidene difluoride (PVDF) membranes. The PVDF membranes were probed with following primary antibodies: anti-phospho-Met (Tyr1234/1235, (Cell Signaling Technology, Beverly, MA, USA), anti-Met (Affinity, USA), anti-phospho-AKT (Ser473, (Affinity, USA)), anti-AKT (Affinity, USA), anti-phospho-Erk1/2 (Thr202/Tyr204, (Affinity, USA)), anti-Erk1/2 (Affinity, USA), anti-E-cadherin (WanleiBio, Shengyang, China), and anti-GAPDH (Multi Sciences, Hangzhou, China). Then, horseradish-peroxidase-conjugated anti-rabbit IgG was used as a second antibody. The immunoreactive proteins were exposed using an enhanced chemiluminescence detection reagent (WanleiBio, Shengyang, China). After sacrificing the mice and isolating the tumor tissue, Western blot was performed as previously described.
# [2] = test system: MKN-45 cells; assay: Cell proliferation assay, MKN-45; format: cell-based, Human; settings: CM 7, various concentrations; 4 days; serum-free medium; cell count; means of six determinations
# Description: (§2) Human gastric cancer cell line MKN-45 cells were from the Chinese Academy of Medical Sciences, Beijing, China. Human gastric cancer cell line MKN-28 cells, the human glioma cell line U87 cells, and MDCK cells were obtained from the American Type Culture Collection (ATCC). The MKN-45 and MKN-28 cells were grown under a humidified atmosphere of 5% CO2 at 37 °C in RPMI 1640 medium (Biological Industries, Israel), supplemented with 10% fetal bovine serum (FBS, Biological Industries, Israel), 2 mmol/L L-glutamine (Gibco, Life Technologies, Grand Island, NY, USA), 100 U/mL penicillin, and 100 μg/mL streptomycin (Invitrogen, Carlsbad, CA, USA). MDCK and U87 cells were cultured under a humidified atmosphere of 5% CO2 at 37 °C in Dulbecco’s modified Eagle’s medium (DMEM) (Gibco, Life Technologies, Grand Island, NY, USA), supplemented with 10% FBS, 2 mmol/L L-glutamine (Gibco, Life Technologies, Grand Island, NY, USA), 100 U/mL penicillin, and 100 μg/mL streptomycin (Invitrogen, Carlsbad, CA, USA).
# (§3) As described in the literature, MKN-45, MKN-28, and U87 cells were seeded into 48-well culture plates (6500 cells/well) and cultured overnight. […] After 4 days, the cells were trypsinized and counted by a cell counter. […]
# [3] = test system: MKN-45 cells; assay: Wound healing (migration) assay; format: cell-based, Human; settings: 1% FBS, 48 h, n = 3, dose-dependent
# Description: For the wound healing assay, MKN-45 cells (4 × 10^4 cells/well) were seeded in a 48-well culture plate. When the cells were almost completely fused, a sterile 200 μL pipette tip was used to generate a straight wound line across the monolayer cell. Then, the cells were washed with PBS and incubated in RPMI 1640 medium containing 1% FBS with CM 7 or Crizotinib at the indicated concentration for 48 h. The experiment was performed in triplicate, and the cell migration toward the gap was captured using the microscope.
# [4] = test system: U87 cells; assay: Cell proliferation assay, U87 (HGF-stimulated); format: cell-based, human; settings: CM 7, various concentrations; 20 ng/mL HGF; 4 days; serum-free medium; cell count; means of six determinations
# Description: as §2, §3
# [5] = test system: c-Met and its downstream signaling molecules in MKN-45 xenografts; assay: Western blot of c-Met signaling in xenograft tumors; format: in vivo, Human; settings: n = 3
# Description: as §1
# [6] = test system: MKN-28 cells; assay: Cell proliferation assay, MKN-28; format: cell-based, Human; settings: CM 7, various concentrations; 4 days; serum-free medium; cell count; means of six determinations
# Description: as §2, §3
# [7] = test system: c-Met and its downstream signaling molecules in MKN-28 cells; assay: Western blot of c-Met signaling, MKN-28; format: cell-based, Human
# Description: as §1
# [8] = test system: MDCK cells; assay: Cell scatter assay (HGF-induced); format: cell-based, canine; settings: HGF 100 ng/mL, 24 h, 37 °C
# Description: MDCK cells were detached from the tissue culture plate and seeded in 96-well plates at the final concentration of 1.5 × 10^3 cells/well overnight. Different concentrations of CM 7 without or with HGF (100 ng/mL) were added to the preset wells. After incubating for 24 h at 37 °C and 5% CO2, 4% paraformaldehyde was used to fix the cells, which were then stained with 0.2% crystal violet. The plates were washed with clean water. When dried, an Olympus IX53 microscope was used to capture the images.
# [9] = test system: MKN-45 cells; assay: Transwell invasion assay; format: cell-based, Human; settings: Matrigel-coated Transwell, 8 μm pores; 48 h; n = 3; dose-dependent
# Description: For the invasion assay, a chamber was placed into a 24-well culture plate with 600 μL RPMI 1640 medium containing 10% FBS. MKN-45 cells were resuspended in serum-free medium and cultured on the upper compartment of the Transwell chamber (1.0 × 10^5 cells/well; pore size, 8 μm; Merck Millipore, Germany) coated with Matrigel. CM 7 and Crizotinib were added to the top side of the membrane at the indicated concentrations. After 48 h, the noninvaded cells were removed, and the invaded cells were fixed with ethanol and stained with crystal violet solution (0.1%) for 15 min at room temperature. The experiment was performed in triplicate, and images were obtained using an Olympus IX53 microscope (Olympus, Japan).
substance,measurement,setting,value
"DQIIANN [CM 7, Novel peptide DQIIANN targeting the tyrosine kinase receptor c-Met]",Expression of E-cadherin,[1],increase the expression of E-cadherin
same,"Phosphorylation of c-Met, Akt and Erk",[1]; dose-dependent,effectively inhibit
same,Inhibition of cell proliferation,[2],moderate regulation; also recorded: inhibit the proliferation of MKN-45 or U87 cells to a certain extent with considerable dose dependence
same,Inhibition of cell migration,[3],"moderate regulation; also recorded: significantly inhibit cell invasion (Figure 7A,C) and cell migration"
same,Inhibition of cell proliferation,[4],inhibit the proliferation of MKN-45 or U87 cells to a certain extent with considerable dose dependence
same,Intratumoral expression of E-cadherin,[5],significantly increased
same,"Intratumoral phosphorylation of c-Met, Akt or Erk",[5],markedly inhibited
same,Inhibition of cell proliferation,[6],no effect
same,Expression of E-cadherin,[7],no effect
same,"Phosphorylation of c-Met, Akt and Erk",[7],not MKN-28 cells; also recorded: no effect
same,Inhibition of growth of cell pseudopodia,[8]; 1 μM,completely inhibited
same,Inhibition of HGF-induced cell scattering,[8]; dose-dependent,moderate regulation; also recorded: remarkably inhibit the HGF-induced cell scattering of MDCK cells in a dose-dependent manner
same,Inhibition of cell invasion,[9],moderate regulation; also recorded: significantly inhibit cell invasion
